Measured values published in PubChem BioAssay AID248 (DTP/NCI, 2004).
“And” between values parts separate entries of the source, which are not always exact repeats. Identical values can stand only once. Inconclusive results and toxic doses are left out. Rule as the data show it: active = T/C of 150% or more; inactive = T/C below 125%.

Test system: L1210 leukemia ip in BDF1 mice, survival T/C
Assay: NCI In Vivo Anticancer Drug Screen. Data for tumor model L1210 Leukemia (intraperitoneal) in B6D2F1 (BDF1) mice
Conditions: endpoint: mean survival time, higher = longer survival
Description: The antitumor activity of compounds was measured in mice bearing transplantable tumors. Survival or tumor size were measured and the results are expressed as the measurement made in the treated group (T) divided by the measurement made in the vehicle treated control group (C). The tumor model used in this assay is L1210 Leukemia (intraperitoneal) in B6D2F1 (BDF1) mice

[1] = dose: 100.0 mg/kg/injection, schedule: Q01DX009 (ip), vehicle: saline with Tween-80
[2] = dose: 200.0 mg/kg/injection, schedule: Q01DX009 (ip), vehicle: saline with Tween-80
[3] = dose: 400.0 mg/kg/injection, schedule: Q01DX009 (ip), vehicle: saline with Tween-80
[4] = dose: 100.0 mg/kg/injection, schedule: Q01DX001 (ip), vehicle: saline
[5] = dose: 200.0 mg/kg/injection, schedule: Q01DX001 (ip), vehicle: saline
[6] = dose: 25.0 mg/kg/injection, schedule: Q04DX002 (ip), vehicle: saline
[7] = dose: 50.0 mg/kg/injection, schedule: Q04DX002 (ip), vehicle: saline
[8] = dose: 100.0 mg/kg/injection, schedule: Q04DX002 (ip), vehicle: saline
[9] = dose: 100.0 mg/kg/injection, schedule: Q01DX009 (ip), vehicle: Klucel (hydroxypropylcellulose) (HPC)
[10] = dose: 100.0 mg/kg/injection, schedule: Q04DX003 (ip), vehicle: Klucel (hydroxypropylcellulose) (HPC)
[11] = dose: 200.0 mg/kg/injection, schedule: Q04DX003 (ip), vehicle: Klucel (hydroxypropylcellulose) (HPC)
[12] = dose: 400.0 mg/kg/injection, schedule: Q01DX009 (ip), vehicle: Klucel (hydroxypropylcellulose) (HPC)
[13] = dose: 400.0 mg/kg/injection, schedule: Q04DX003 (ip), vehicle: Klucel (hydroxypropylcellulose) (HPC)
[14] = dose: 100.0 mg/kg/injection, schedule: Q01DX009 (ip), vehicle: saline
[15] = dose: 200.0 mg/kg/injection, schedule: Q01DX009 (ip), vehicle: saline
[16] = dose: 400.0 mg/kg/injection, schedule: Q01DX009 (ip), vehicle: saline
[17] = dose: 100.0 mg/kg/injection, schedule: Q04DX003 (ip), vehicle: saline with Tween-80
[18] = dose: 200.0 mg/kg/injection, schedule: Q04DX003 (ip), vehicle: saline with Tween-80
[19] = dose: 400.0 mg/kg/injection, schedule: Q04DX003 (ip), vehicle: saline with Tween-80
[20] = dose: 400.0 mg/kg/injection, schedule: Q01DX001 (ip), vehicle: saline
[21] = dose: 25.0 mg/kg/injection, schedule: Q01DX009 (ip), vehicle: Klucel (hydroxypropylcellulose) (HPC)
[22] = dose: 50.0 mg/kg/injection, schedule: Q01DX009 (ip), vehicle: Klucel (hydroxypropylcellulose) (HPC)
[23] = dose: 100.0 mg/kg/injection, schedule: Q04DX003 (ip), vehicle: saline
[24] = dose: 200.0 mg/kg/injection, schedule: Q04DX003 (ip), vehicle: saline
[25] = dose: 400.0 mg/kg/injection, schedule: Q04DX003 (ip), vehicle: saline

Measured: T/C

O=C1c2c(c(O)c3ccccc3c2O)C(=O)C2CC=CCC12 (centres undefined)
inactive: dose: 25.0 mg/kg/injection, schedule: Q01DX009 (ip), vehicle: saline with Tween-80 105 % of control | dose: 50.0 mg/kg/injection, schedule: Q01DX009 (ip), vehicle: saline with Tween-80 110 % of control | [1] 104 % of control | [2] 104 % of control | [3] 104 % of control

C=CCOC(=S)S
inactive: [4] 95 % of control | [5] 94 % of control

NCC(=O)NC(CSSCC(N)C(=O)O)C(=O)O (centres undefined)
inactive: [6] 103 % of control | [7] 103 % of control | [8] 100 % of control

c1ccc2c(C3OCC4(CCCCC4)CO3)cccc2c1
inactive: [9] 97 % of control | [10] 101 % of control | dose: 200.0 mg/kg/injection, schedule: Q01DX009 (ip), vehicle: Klucel (hydroxypropylcellulose) (HPC) 97 % of control | [11] 105 % of control | [12] 92 % of control | [13] 111 % of control

COc1cc(NCc2ccccc2)ccc1NC(C)=O
inactive: dose: 15.0 mg/kg/injection, schedule: Q01DX001 (ip), vehicle: carboxymethylcellulose (CMC) 98 % of control | dose: 30.0 mg/kg/injection, schedule: Q01DX001 (ip), vehicle: carboxymethylcellulose (CMC) 110 % of control | dose: 75.0 mg/kg/injection, schedule: Q01DX001 (ip), vehicle: carboxymethylcellulose (CMC) 98 % of control

Cc1cc([N+](=O)[O-])c(N/N=C/c2c[nH]c3ccccc23)c([N+](=O)[O-])c1
inactive: [14] 102 % of control | [15] 93 % of control | [16] 98 % of control

Nc1ccc(O)c2ccccc12
inactive: dose: 6.25 mg/kg/injection, schedule: Q04DX003 (ip), vehicle: other 97 % of control

CN(C)CC(C)(C)C(=O)c1ccccc1
inactive: [6] 100 % of control | [7] 100 % of control | [8] 104 % of control

COc1ccc(-c2cnc(=O)[nH]c2N)cc1
inactive: [10] 101 % of control | [11] 104 % of control

CCCCOC(=O)CC(=O)OCCCC
inactive: [9] 96 % of control | [10] 88 % of control | [11] 95 % of control | [12] 86 % of control | [13] 97 % of control

CC1CCC(OC(C[N+](=O)[O-])C(Cl)(Cl)Cl)CC1 (centres undefined)
inactive: [1] 93 % of control | [17] 106 % of control | [2] 91 % of control | [18] 101 % of control | [3] 90 % of control | [19] 104 % of control

CC(=O)c1ccc(Br)c([N+](=O)[O-])c1
inactive: [4] 95 % of control | [5] 98 % of control | [20] 103 % of control

CCOC(C)C1C2CCCCC21 (centres undefined)
inactive: [1] 101 % of control | [2] 92 % of control

Cc1nc2c(c(=O)[nH]1)OCN(C)C2
inactive: dose: 50.0 mg/kg/injection, schedule: Q01DX001 (ip), vehicle: saline 104 % of control | [4] 101 % of control | [5] 109 % of control | [20] 122 % of control

O=C(N=c1cc(-c2ccc(Cl)cc2)ss1)C(Cc1ccccc1)N1C(=O)c2ccccc2C1=O (centres undefined)
inactive: dose: 25.0 mg/kg/injection, schedule: Q01DX009 (ip), vehicle: water 102 % of control | dose: 50.0 mg/kg/injection, schedule: Q01DX009 (ip), vehicle: water 102 % of control | dose: 100.0 mg/kg/injection, schedule: Q01DX009 (ip), vehicle: water 96 % of control | dose: 200.0 mg/kg/injection, schedule: Q01DX009 (ip), vehicle: water 95 % of control | dose: 400.0 mg/kg/injection, schedule: Q01DX009 (ip), vehicle: water 87 % of control

O=S1(=O)CC(S(=O)(=O)O)C(S(=O)(=O)O)C1 (centres undefined)
inactive: dose: 50.0 mg/kg/injection, schedule: Q01DX009 (ip), vehicle: saline 110 % of control | [14] 103 % of control | [15] 99 % of control | [16] 93 % of control

CSC(=S)N(C)C
inactive: [21] 90 % of control | [22] 108 % of control | [9] 97 % of control and 102 % of control | [10] 100 % of control | [11] 93 % of control

Nc1ncnc2c1ncn2C1OC(COC2C(CO)OC(OC(C(=O)O)C(O)C(OP(=O)(O)O)C(O)C(=O)O)C(O)C2O)C(O)C1O (centres undefined)
inactive: dose: 0.25 mg/kg/injection, schedule: Q04DX002 (ip), vehicle: saline + alcohol 91 % of control | dose: 0.5 mg/kg/injection, schedule: Q04DX002 (ip), vehicle: saline + alcohol 94 % of control | dose: 1.0 mg/kg/injection, schedule: Q04DX002 (ip), vehicle: saline + alcohol 98 % of control

OC1(C2CCCCC2)C2CCCC1CCC2 (centres undefined)
inactive: dose: 100.0 mg/kg/injection, schedule: Q01DX009 (ip), vehicle: other 94 % of control | [17] 99 % of control | dose: 200.0 mg/kg/injection, schedule: Q01DX009 (ip), vehicle: other 94 % of control | [18] 92 % of control | dose: 400.0 mg/kg/injection, schedule: Q01DX009 (ip), vehicle: other 101 % of control | [19] 103 % of control

O=C(O)/C=C/c1ccccc1C(=O)O
inactive: [23] 100 % of control | [24] 91 % of control | [25] 103 % of control

CC(=O)Nc1ccc([I+]c2ccc([N+](=O)[O-])cc2)cc1
inactive: dose: 6.25 mg/kg/injection, schedule: Q01DX009 (ip), vehicle: Klucel (hydroxypropylcellulose) (HPC) 90 % of control | dose: 12.5 mg/kg/injection, schedule: Q01DX009 (ip), vehicle: Klucel (hydroxypropylcellulose) (HPC) 98 % of control | [21] 104 % of control | [22] 106 % of control | [9] 101 % of control | [2] 109 % of control

O=C(Oc1ccccc1[N+](=O)[O-])c1ccccc1
inactive: dose: 100.0 mg/kg/injection, schedule: Q04DX003 (ip), vehicle: other 98 % of control | dose: 200.0 mg/kg/injection, schedule: Q04DX003 (ip), vehicle: other 118 % of control | dose: 400.0 mg/kg/injection, schedule: Q04DX003 (ip), vehicle: other 93 % of control

C/C(=C\COc1ccc2ccc(=O)oc2c1)C1=CC(=O)C(C)(C)O1
inactive: [1] 96 % of control | [17] 96 % of control | [2] 94 % of control | [18] 91 % of control | [3] 97 % of control | [19] 94 % of control

O=C(NCCBr)NC1CC1c1ccccc1 (centres undefined)
inactive: dose: 20.0 mg/kg/injection, schedule: Q04DX003 (ip), vehicle: Klucel (hydroxypropylcellulose) (HPC) 117 % of control | dose: 40.0 mg/kg/injection, schedule: Q04DX003 (ip), vehicle: Klucel (hydroxypropylcellulose) (HPC) 101 % of control | dose: 80.0 mg/kg/injection, schedule: Q04DX003 (ip), vehicle: Klucel (hydroxypropylcellulose) (HPC) 93 % of control | [10] 118 % of control

CCCc1c(O)ccc(C)c1C
inactive: dose: 100.0 mg/kg/injection, schedule: Q01DX001 (ip), vehicle: other 91 % of control | dose: 200.0 mg/kg/injection, schedule: Q01DX001 (ip), vehicle: other 103 % of control

CCOC(=O)c1cnc(C)nc1C
inactive: [14] 95 % of control | [23] 103 % of control | [15] 100 % of control | [24] 98 % of control | [16] 95 % of control | [25] 98 % of control

CC(=O)C(CCC#N)(CCC#N)CCC#N
inactive: dose: 75.0 mg/kg/injection, schedule: Q01DX009 (ip), vehicle: saline 93 % of control | dose: 150.0 mg/kg/injection, schedule: Q01DX009 (ip), vehicle: saline 95 % of control | [24] 102 % of control | dose: 300.0 mg/kg/injection, schedule: Q01DX009 (ip), vehicle: saline 93 % of control | [25] 87 % of control

CN(C)/N=C\c1cccc2ccccc12
inactive: dose: 100.0 mg/kg/injection, schedule: Q04DX002 (ip), vehicle: saline with Tween-80 96 % of control | dose: 200.0 mg/kg/injection, schedule: Q04DX002 (ip), vehicle: saline with Tween-80 92 % of control | dose: 400.0 mg/kg/injection, schedule: Q04DX002 (ip), vehicle: saline with Tween-80 92 % of control
